Blank lines part the entries; values can stand above or below the substance they belong to.
Tests used:
[1] = target: IL-15Rα:Fc; assay: SPR (BIAcore), IL-15Rα:Fc captured by immobilised goat anti-human Fc
[2] = target: IL-15Rα:Fc; assay: SPR (BIAcore), IL-15Rα:Fc captured by immobilised goat anti-human Fc, test article injected in 3-fold dilutions from 10 µM
[3] = target: IL-15Rα:Fc; assay: SPR (BIAcore), IL-15Rα:Fc captured by immobilised goat anti-human Fc, KD from kd/ka
[4] = target: IL-15Rα (Homo sapiens, UniProt Q13261); assay: Receptor affinity for IL-15Rα by surface plasmon resonance (BIAcore); type: binding; conditions: Table 2B; read-out: IL-15Rα KD
Sequence of IL-15Rα (Q13261 31-205 limits assumed): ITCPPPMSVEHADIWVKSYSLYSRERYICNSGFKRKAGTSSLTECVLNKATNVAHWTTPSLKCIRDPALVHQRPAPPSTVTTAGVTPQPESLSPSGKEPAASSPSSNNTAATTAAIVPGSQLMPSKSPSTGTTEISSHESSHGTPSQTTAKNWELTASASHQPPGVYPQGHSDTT
Method: The affinities of IL-15 and exemplary long acting rIL-15 receptor agonists were measured using Surface Plasmon Resonance (“SPR”) using a BIAcore™ SPR system. Briefly, the surface of a Biacore CM5 sensor chip was activated using a 1:1 mixture of NHS: EDC to generate active NHS esters. Goat anti-human Fc antibody was covalently attached to the surface by injecting it for five minutes in 10 mM sodium acetate (pH 4). There were approximately 8000 RU of antibodies bound to the surface. Any remaining NHS ester was then quenched with ethanolamine.
At the initiation of each injection cycle, IL-15-Rα-Fc was captured on a sensor chip channel by a five-minute injection step in PBSP. Typically, 150-200 RU of receptors were bound on the surface.
(§1) Long acting rIL-15 receptor agonist test articles were diluted to 10 µM in PBS (containing 0.05% Tween 20 and 0.1 mg/ml BSA). A series of 3-fold dilutions were made and injected onto a sensor chip which was coated with IL-15Rα. The affinities were measured by determining the ka and kd rates separately, and the ratio between kd and ka was used to calculate the Kd values.
The affinities of exemplary long-acting IL-15 receptor agonists (test articles) for the IL-15 α receptor were measured and compared to IL-15. Affinity was measured by BIAcore using IL-15Rα:Fc captured by immobilized anti-Fc.
as §1, with “The” for “Long acting rIL-15 receptor agonist”, “μM” for “µM”, “between ka and” for “between”, “kd” for “kd and ka”, “[…]” for “Kd”

[5] = test system: CTLL-2 cells; assay: Potency assay based on STAT5 phosphorylation in CTLL-2 cells; type: cell-based, murine; conditions: for EC50 (ng/mL) CTLL-2 pSTAT5: Table 2B
Method: In the phospho-STAT5 assay following receptor binding, downstream cell signaling can then activate Signal Transducer and Activator of Transcription 5 (STAT5) through phosphorylation to promote gene expression to induce cell proliferation. The activation of phosho-STAT5 is measured in CTLL-2 cells, a murine T lymphocyte cell line, using the phospho-STAT5/total STAT5 multiplexed assay (Meso Scale Discovery, MD) in response to sample and reference treatment for ˜10 minutes.
One day prior to the assay, CTLL-2 cells were split into fresh growth medium [RPMI 1640 supplemented with 10% FBS, 10% T-cell culture supplement (catalog #354115, Corning, Inc., Tewksbury, MA), 2 mM L-glutamate, and 1 mM sodium pyruvate]. On the day of assay, cells were pre-incubated in assay medium (RPMI 1640 supplemented with 1% FBS, 2 mM L-glutamate, and 1 mM sodium pyruvate) for at least four hours, and then plated in assay medium in a 96-well plate at 50,000 cells/well. Dilutions of the test article were prepared in an appropriate buffer immediately prior to assay. Stimulation of CTLL-2 cells was initiated by the transfer of 25X test article solutions to triplicate wells containing CTLL-2 cells. Plates were incubated at 37° C., 5% CO2 for 10 minutes, and the reaction was stopped by cell lysis. Detection of phospho-STAT5 and total STAT5 protein levels in cell lysates was performed using the MSD Phospho (Tyr694)/Total STATa,b Whole Cell Lysate Kit (Meso Scale Discovery, MD).

[6] = test system: human PBMCs; assay: HuPBMC-pStat5 assay (flow cytometry, lymphocyte subpopulations); type: cell-based; conditions: for EC50 (ng/ml) pSTAT5 CD56bright NK: Table 3, CD56bright NK cells
Method: The potency of IL-15 or long acting IL-15 R agonists on various human lymphocyte subpopulations was determined by phospho-STAT5 (Y694) dose response assay. Frozen human PBMCs from multiple donors were supplied by AllCells. 1×10^6 cells/100ul were cultured in complete RPMI media for 2 hours and then incubated with the indicated concentrations (10,000ng/ml-0.001ng/ml serial dilutions) of IL-15 or conjugates for 20minutes at 37c. The cells were then fixed (using BD Cytofix) and permeabilized (using 100% pre-chilled methanol) and stained with antibodies for CD3, CD4, CD8, CD4-Tregs (CD4+CD25+Foxp3+), CD56 and phosphorylated STAT5 (Y694) before analysis by flow cytometry. Concentration-response relationships were used to calculate the EC50 values.
Assessment of in-vitro activity of exemplary long-acting IL-15 receptor agonists (e.g., Conjugates 1, 3 and 5) was carried out by investigating signaling in NK cell subsets of human PBMCs as shown in FIGS. 10A (CD56bright cells) and 10B (CD56dim cells). STAT5 phosphorylation was evaluated as previously described for assessing IL-15 signaling activity of the long acting IL-15 receptor agonists.
A second study was conducted to investigate/compare the pStat5 response of human PBMCs obtained from two donors (CD3, CD4, CD8, CD56 (bright and dim) and CD4-Tregs (CD25+Foxp3+)) to IL-15, Conjugate 1 and Conjugate 5. An […] dose response was examined using a 10-fold dilution with a dose range of 0.001-10000 ng/ml and a 20 min stimulation. Each of the test articles was diluted in IL-15 buffer+0.1% BSA.
Assessment of in vitro activity of Conjugate 1 was carried out by investigating NK and CD8 JAK/STAT signaling after treatment of human PBMCs with IL-15 or Conjugate 1 at a dose range of 0.001-10000 ng/ml. STAT5 phosphorylation was assessed as previously described.

[7] = PK (MRT) of long-acting IL-15 receptor agonists (Table 2B); type: in vivo; conditions: species not stated

Sequence of IL-15Rα:Fc (Q13261 31-205): as the sequence (Q13261 31-205 limits assumed) above

Substance: Recombinant human IL-15 (rIL-15), SEQ ID NO: 1 (from UniProt P40933 49-162) (ligand)
Kd [1]: 0.258 nM
koff [2]: 0.000149 s⁻¹
kon [2]: 578000 M⁻¹ s⁻¹
Kd [3]: 0.258 nM

Substance: [Mono-PEG2-RU-ButryALD-40K]-IL-15 (Conjugate 3) (from UniProt P40933 49-162) (ligand)
Kd [1]: 0.411 nM

Substance: mono-mPEG-ButryALD-40k-IL-15 (Conjugate 5) (from UniProt P40933 49-162) (ligand)
Kd [1]: 0.144 nM

Substance: mono-mPEG-ButryALD-40k-IL-15 [Conjugate 5]
Kd [4]: 0.144 nM
EC50 (ng/mL) CTLL-2 pSTAT5 [5]: 1.45 ng/mL
EC50 (ng/ml)-% pSTAT5 CD3 donor1 ([6]; CD3 cells, donor1, 20 min stimulation): 1.3 ng/ml
EC50 (ng/ml)-% pSTAT5 CD3 donor2 ([6]; CD3 cells, donor2, 20 min stimulation): 1.7 ng/ml
EC50 (ng/ml)-% pSTAT5 Treg donor1 ([6]; CD4-Treg cells, donor1): 0.44 ng/ml
EC50 (ng/ml)-% pSTAT5 Treg donor2 ([6]; CD4-Treg cells, donor2): 0.45 ng/ml
EC50 (ng/ml)-% pSTAT5 CD4 donor1 ([6]; CD4 cells, donor1): 1.3 ng/ml
EC50 (ng/ml)-% pSTAT5 CD4 donor2 ([6]; CD4 cells, donor2): 1.14 ng/ml
EC50 (ng/ml)-% pSTAT5 CD8 donor1 ([6]; CD8 cells, donor1): 1.4 ng/ml
EC50 (ng/ml)-% pSTAT5 CD8 donor2 ([6]; CD8 cells, donor2): 2.5 ng/ml
EC50 (ng/ml)-% pSTAT5 CD56bright donor1 ([6]; CD56bright cells, donor1): 5.1 ng/ml
EC50 (ng/ml)-% pSTAT5 CD56bright donor2 ([6]; CD56bright cells, donor2): 4.5 ng/ml
EC50 (ng/ml)-% pSTAT5 CD56dim donor1 ([6]; CD56dim cells, donor1): 16.48 ng/ml
EC50 (ng/ml)-% pSTAT5 CD56dim donor2 ([6]; CD56dim cells, donor2): 27.12 ng/ml
EC50 (ng/ml) pSTAT5 CD56bright NK [6]: 32.26 ng/ml
EC50 (ng/ml)-% pSTAT5 CD3 ([6]; Table 7 Summary Table, CD3): 1.3 ng/ml
EC50 (ng/ml)-% pSTAT5 CD4 ([6]; Table 7 Summary Table, CD4): 1.3 ng/ml
EC50 (ng/ml)-% pSTAT5 CD8 ([6]; Table 7 Summary Table, CD8): 1.4 ng/ml
EC50 (ng/ml)-% pSTAT5 CD56bright ([6]; Table 7 Summary Table, CD56bright): 5.1 ng/ml
EC50 (ng/ml)-% pSTAT5 CD56dim ([6]; Table 7 Summary Table, CD56dim): 16.48 ng/ml
EC50 (ng/ml)-% pSTAT5 Treg ([6]; Table 7 Summary Table, Treg): 0.44 ng/ml
IL-15 more potent than conjugate in inducing CD3, CD4, CD8 and Treg cells ([6]; Table 7 data): 5-8 fold
IL-15 more potent than conjugate in inducing CD56bright and CD56dim cells ([6]; Table 7 data): 40-60 fold
EC50 (ng/ml)-MFI CD3 donor1 ([6]; pSTAT5 MFI, CD3 cells, donor1): 84.73 ng/mL
EC50 (ng/ml)-MFI CD3 donor2 ([6]; pSTAT5 MFI, CD3 cells, donor2): 154.2 ng/mL
EC50 (ng/ml)-MFI Treg donor1 ([6]; pSTAT5 MFI, CD4-Treg cells, donor1): 3.5 ng/mL
EC50 (ng/ml)-MFI Treg donor2 ([6]; pSTAT5 MFI, CD4-Treg cells, donor2): 5.4 ng/mL
EC50 (ng/ml)-MFI CD4 donor1 ([6]; pSTAT5 MFI, CD4 cells, donor1): 84.21 ng/mL
EC50 (ng/ml)-MFI CD4 donor2 ([6]; pSTAT5 MFI, CD4 cells, donor2): 98.18 ng/mL
EC50 (ng/ml)-MFI CD8 donor1 ([6]; pSTAT5 MFI, CD8 cells, donor1): 53.7 ng/mL
EC50 (ng/ml)-MFI CD8 donor2 ([6]; pSTAT5 MFI, CD8 cells, donor2): 204.6 ng/mL
EC50 (ng/ml)-MFI CD56bright donor1 ([6]; pSTAT5 MFI, CD56bright cells, donor1): 24.86 ng/mL
EC50 (ng/ml)-MFI CD56bright donor2 ([6]; pSTAT5 MFI, CD56bright cells, donor2): 56.9 ng/mL
EC50 (ng/ml)-MFI CD56dim donor1 ([6]; pSTAT5 MFI, CD56dim cells, donor1): 97.51 ng/mL
EC50 (ng/ml)-MFI CD56dim donor2 ([6]; pSTAT5 MFI, CD56dim cells, donor2): 283.4 ng/mL
PK (MRT) [7]: 25 h

Substance: recombinant human IL-15: recombinant human IL-15 obtained from PeproTech, served as the control in the CTLL-2 assay [reference compound]
average EC50, STAT5 phosphorylation in CTLL-2 cells ([5]; 10-minute treatment, control): 0.00027 µg/mL

Further lines, with some results ahead:

Kd [4]: 0.411 nM
EC50 (ng/mL) CTLL-2 pSTAT5 [5]: 16.80 ng/mL
Substance: [Mono-PEG2-RU-ButryALD-40K]-IL-15 [Conjugate 3]
EC50 (ng/ml) pSTAT5 CD56bright NK [6]: 69.76 ng/ml
PK (MRT) [7]: 30 h

Kd [1]: 0.215 nM
Substance: mono-PEG2-RU-ButryALD-20K]-IL-15 (Conjugate 4) (from UniProt P40933 49-162) (ligand)

Kd [4]: 0.215 nM
EC50 (ng/mL) CTLL-2 pSTAT5 [5]: 6.21 ng/mL
Substance: mono-PEG2-RU-ButryALD-20K]-IL-15 [Conjugate 4]

From US20240424115A1, “LONG-ACTING INTERLEUKIN-15 RECEPTOR AGONISTS AND RELATED IMMUNOTHERAPEUTIC COMPOSITIONS AND METHODS” (Nektar Therapeutics, priority 2017, published 2024)
